Measurements from patent US20230053688A1, “METHODS TO ALTER LATENCY IN EBV+ MALIGNANCIES” (Cornell University, priority 2020, published 2023).
Structures can show the parent of a compound that is named as a salt. Where two headings read alike, the source gives them in different places.

Test system: LMP1 expression in Kem I cells
Experiment: microbe, parasite or virus in culture
Format: cell-based, EBV
Conditions: for fold induction at 2.5 µM / fold induction at 1 µM: human gammaherpesvirus 4, 48 h
[1] = Kem I cells, 2.5 uM, 48 hours, average of replicates 1 and 2
[2] = Kem I cells, 2.5 uM, 48 hours, fold change in LMP1 transcript vs vehicle
[3] = read-out: Average LMP1 Fold Increase, Kem I cells, 2.5 uM, 48 hours, average of replicates 1 and 2
[4] = read-out: Replicate 1-LMP1 Fold Increase, Kem I cells, 2.5 uM, 48 hours, fold change in LMP1 transcript vs vehicle
[5] = read-out: Replicate 2-LMP1 Fold Increase, Kem I cells, 2.5 uM, 48 hours, fold change in LMP1 transcript vs vehicle
[6] = Kem I cells, 1 uM, 48 hours, fold change in LMP1 transcript vs vehicle

## COc1ccc(-c2cnc3c(-c4cccc5ncccc45)cnn3c2)cc1 [ML347]
[1]
  Average LMP1 Fold Increase: 0.34
[2]
  Replicate 1-LMP1 Fold Increase: 0.19
  Replicate 2-LMP1 Fold Increase: 0.49

## COc1cc(Br)c(Nc2nc(-c3c(C)nc4ncccn34)cs2)c(Br)c1 [PTC-209]
  Average LMP1 Fold Increase: 0.90
  Replicate 1-LMP1 Fold Increase: 0.34
  Replicate 2-LMP1 Fold Increase: 1.46

## COc1cc2c(cc1O)CC[C@@H]1[C@@H]2CC[C@]2(C)[C@@H](O)CC[C@@H]12 [2-Methoxyestradiol (2-MeOE2)]
[1]
  Average LMP1 Fold Increase: 1.00
[2]
  Replicate 1-LMP1 Fold Increase: 0.65
  Replicate 2-LMP1 Fold Increase: 1.34

## Cc1c(Cc2ccc3ccccc3n2)c2cc(F)ccc2n1CC(=O)O [OC000459]
[3]
  fold induction at 2.5 µM: 0.56
[4]
  fold induction at 2.5 µM: 0.64
[5]
  fold induction at 2.5 µM: 0.48

## Cc1ccccc1C(C(=O)NC1CCCCC1)N(C(=O)Cn1ccnc1C)c1cccc(F)c1 (stereo not drawn) [AGI-5198]
[3]
  fold induction at 2.5 µM: 0.82
[4]
  fold induction at 2.5 µM: 0.71
[5]
  fold induction at 2.5 µM: 0.93

## COc1ccc(C(=O)N2CCCC2=O)cc1 [Aniracetam]
[3]
  fold induction at 2.5 µM: 0.55
[4]
  fold induction at 2.5 µM: 0.72
[5]
  fold induction at 2.5 µM: 0.39

## COc1cc2c(N3CCN(C(=O)Nc4ccc(OC(C)C)cc4)CC3)ncnc2cc1OCCCN1CCCCC1 [Tandutinib (MLN518)]
Kem I cells, dose 2.5 uM, 48 hours, LMP1 transcript by in-well qRT-PCR, average of the two replicates
  Average LMP1 Fold Increase: 0.31 fold
Kem I cells, dose 2.5 uM, 48 hours, LMP1 transcript by in-well qRT-PCR, screen replicate 1
  Replicate 1-LMP1 Fold Increase: 0.21 fold
Kem I cells, dose 2.5 uM, 48 hours, LMP1 transcript by in-well qRT-PCR, screen replicate 2
  Replicate 2-LMP1 Fold Increase: 0.41 fold

## COc1cccc(C=NCCN=Cc2cccc(OC)c2[O-])c1[O-].[Cl-].[Mn+3] [EUK 134]
[1]
  Average LMP1 Fold Increase: 0.90
[2]
  Replicate 1-LMP1 Fold Increase: 0.85
  Replicate 2-LMP1 Fold Increase: 0.95

## CC[C@@H]1C(=O)N(C)c2cnc(Nc3ccc(C(=O)NC4CCN(C)CC4)cc3OC)nc2N1C1CCCC1 [BI 2536]
[3]
  fold induction at 2.5 µM: 12.6
[4]
  fold induction at 2.5 µM: 23.3
[5]
  fold induction at 2.5 µM: 1.89

## O=c1cc(-c2cccc3c2Sc2ccccc2S3)oc(N2CCOCC2)c1 [KU-55933 (ATM Kinase Inhibitor)]
[1]
  Average LMP1 Fold Increase: 0.78
[2]
  Replicate 1-LMP1 Fold Increase: 0.60
  Replicate 2-LMP1 Fold Increase: 0.95

## O=C(O)c1ccc(Nc2ncc3c(n2)-c2ccc(Cl)cc2C(c2c(F)cccc2F)=NC3)cc1 [MLN8054]
[3]
  fold induction at 2.5 µM: 0.37
[4]
  fold induction at 2.5 µM: 0.27
[5]
  fold induction at 2.5 µM: 0.47

## Cl.O=C(O)Cc1cccc(OCCCN(Cc2cccc(C(F)(F)F)c2Cl)CC(c2ccccc2)c2ccccc2)c1 [GW3965 HCl]
[1]
  Average LMP1 Fold Increase: 0.27
[2]
  Replicate 1-LMP1 Fold Increase: 0.20
  Replicate 2-LMP1 Fold Increase: 0.35

## CCN(c1cc(-c2ccc(CN3CCOCC3)cc2)cc(C(=O)NCc2c(C)cc(C)[nH]c2=O)c1C)C1CCOCC1 [EPZ 6438]
read-out: Average LMP1 Fold Increase, Kem I cells, 1 uM, 48 hours, average of replicates 1 and 2
  fold induction at 1 µM: 24.5
read-out: Replicate 1-LMP1 Fold Increase, Kem I cells, 1 uM, 48 hours, fold change in LMP1 transcript vs vehicle
  fold induction at 1 µM: 2.14
read-out: Replicate 2-LMP1 Fold Increase, Kem I cells, 1 uM, 48 hours, fold change in LMP1 transcript vs vehicle
  fold induction at 1 µM: 46.9

## Cc1ccccc1C(=O)Nc1ccc(C(=O)N2CCCC(O)c3cc(Cl)ccc32)c(C)c1 (stereo not drawn) [Tolvaptan]
read-out: Average LMP1 Fold Increase, Kem I cells, dose 2.5 uM, 48 hours, LMP1 transcript by in-well qRT-PCR, average of the two replicates
  fold induction at 2.5 µM: 4.67
read-out: Replicate 1-LMP1 Fold Increase, Kem I cells, dose 2.5 uM, 48 hours, LMP1 transcript by in-well qRT-PCR, screen replicate 1
  fold induction at 2.5 µM: 1.11
read-out: Replicate 2-LMP1 Fold Increase, Kem I cells, dose 2.5 uM, 48 hours, LMP1 transcript by in-well qRT-PCR, screen replicate 2
  fold induction at 2.5 µM: 8.24

## CC1C(=O)OC2C(O)C34C5CC(C(C)(C)C)C36C(OC(=O)C6O)OC4(C(=O)O5)C12O (stereo not drawn) [Ginkgolide B]
[1]
  Average LMP1 Fold Increase: 0.76
[2]
  Replicate 1-LMP1 Fold Increase: 1.04
  Replicate 2-LMP1 Fold Increase: 0.49

## C[C@H](NCc1ccc(OCc2cccc(F)c2)cc1)C(N)=O [Safinamide Mesylate]
[3]
  fold induction at 2.5 µM: 0.95
[4]
  fold induction at 2.5 µM: 0.2
[5]
  fold induction at 2.5 µM: 1.71

## CC[C@@H]1/C=C/C=C/C[C@H](C)[C@H](O)[C@](C)(O)C(=O)[C@H](C)[C@@H](O)[C@H](C)C(=O)[C@H](C)[C@@H](O)[C@H](C)/C=C/C(=O)O[C@H]2[C@@H](C)[C@@H](CC1)O[C@@]1(CC[C@@H](C)[C@@H](C[C@H](C)O)O1)[C@@H]2C [Oligomycin A]
[1]
  Average LMP1 Fold Increase: 1.40
[2]
  Replicate 1-LMP1 Fold Increase: 1.03
  Replicate 2-LMP1 Fold Increase: 1.76

## CC[C@H](C)C(=O)O[C@H]1C[C@@H](C)C=C2C=C[C@H](C)[C@H](CC[C@@H]3C[C@@H](O)CC(=O)O3)[C@H]21 [Lovastatin]
[3]
  fold induction at 2.5 µM: 0.96
[4]
  fold induction at 2.5 µM: 0.34
[5]
  fold induction at 2.5 µM: 1.59

## CC(C)c1ccc(NC(=O)Cn2cnc3c2c(=O)n(C)c(=O)n3C)cc1 [HC-030031]
[1]
  Average LMP1 Fold Increase: 0.28
[2]
  Replicate 1-LMP1 Fold Increase: 0.32
  Replicate 2-LMP1 Fold Increase: 0.24

## COc1cc2c(cc1Cc1cccc(Cl)c1F)c(=O)c(C(=O)O)cn2[C@H](CO)C(C)C [Elvitegravir (GS-9137, JTK-303)]
[1]
  Average LMP1 Fold Increase: 1.23
[2]
  Replicate 1-LMP1 Fold Increase: 1.25
  Replicate 2-LMP1 Fold Increase: 1.20

## Cc1nc(-c2cn3c(n2)-c2ccc(-c4cnn(C(C)(C)C(N)=O)c4)cc2OCC3)n(C(C)C)n1 [GDC-0032]
Kem I cells, 1 uM, 48 hours, average of replicates 1 and 2
  Average LMP1 Fold Increase: 1.23
[6]
  Replicate 1-LMP1 Fold Increase: 1.86
  Replicate 2-LMP1 Fold Increase: 0.59

## CCNC(=O)c1noc(-c2cc(C(C)C)c(O)cc2O)c1-c1ccc(CN2CCOCC2)cc1 [AUY922 (NVP-AUY922)]
[1]
  Average LMP1 Fold Increase: 1.29
[2]
  Replicate 1-LMP1 Fold Increase: 1.62
  Replicate 2-LMP1 Fold Increase: 0.96

## CC(C)(C)n1nc(-c2ccc(Cl)cc2)c2c(N)ncnc21 [PP2]
[1]
  Average LMP1 Fold Increase: 1.01
[2]
  Replicate 1-LMP1 Fold Increase: 0.73
  Replicate 2-LMP1 Fold Increase: 1.28

## CC(C)NC[C@@H](C(=O)N1CCN(c2ncnc3c2[C@H](C)C[C@H]3O)CC1)c1ccc(Cl)cc1 [GDC-0068]
[1]
  Average LMP1 Fold Increase: 0.27
[2]
  Replicate 1-LMP1 Fold Increase: 0.27
  Replicate 2-LMP1 Fold Increase: 0.27

## CN1CCN(c2nc(C3=C(c4c[nH]c5ccccc45)C(=O)NC3=O)c3ccccc3n2)CC1 [Sotrastaurin]
[3]
  fold induction at 2.5 µM: 0.31
[4]
  fold induction at 2.5 µM: 0.3
[5]
  fold induction at 2.5 µM: 0.31

## Cc1[nH]c(/C=C2\C(=O)Nc3ccc(S(=O)(=O)N(C)c4cccc(Cl)c4)cc32)c(C)c1C(=O)N1CCN(C)CC1 [SU11274]
[3]
  fold induction at 2.5 µM: 0.94
[4]
  fold induction at 2.5 µM: 1.05
[5]
  fold induction at 2.5 µM: 0.82

## Cc1c(C(=O)Nc2ccc(N3C[C@@H](C)O[C@@H](C)C3)nc2)cccc1-c1ccc(OC(F)(F)F)cc1 [LDE225 (NVP-LDE225, Erismodegib)]
[1]
  Average LMP1 Fold Increase: 0.39
[2]
  Replicate 1-LMP1 Fold Increase: 0.50
  Replicate 2-LMP1 Fold Increase: 0.29

## COc1ccc(-n2nc(C(N)=O)c3c2C(=O)N(c2ccc(N4CCCCC4=O)cc2)CC3)cc1 [Apixaban]
[3]
  fold induction at 2.5 µM: 0.32
[4]
  fold induction at 2.5 µM: 0.4
[5]
  fold induction at 2.5 µM: 0.24

## CN(C)C(=O)c1ccc(S(=O)(=O)c2ccc(NC(=O)[C@@](C)(O)C(F)(F)F)c(Cl)c2)cc1 [AZD7545]
[1]
  Average LMP1 Fold Increase: 0.67
[2]
  Replicate 1-LMP1 Fold Increase: 0.40
  Replicate 2-LMP1 Fold Increase: 0.94

## CC(=O)Nc1cccc2c1c(Sc1ccc(Cl)cc1)c(C)n2CC(=O)O [AZD1981]
[1]
  Average LMP1 Fold Increase: 0.80
[2]
  Replicate 1-LMP1 Fold Increase: 1.13
  Replicate 2-LMP1 Fold Increase: 0.46
